In ChEMBL document CHEMBL4219142, “Discovery of potent DOT1L inhibitors by AlphaLISA based High Throughput Screening assay” (Bioorg Med Chem, 2018):

Legend:
MV4-11 [1] = experiment: Induction of apoptosis in human MV411 cells assessed as necrotic cells at 25 uM after 48 hrs by Annexin-V-FITC/propidium iodide staining based flow cytometric method (Rvb <= 0.08%); format: functional
MV4-11 [2] = experiment: Cell cycle arrest in human MV411 cells assessed as accumulation at S phase at 50 uM after 24 hrs by propidium iodide staining based flow cytometric analysis (reference value: 30.25 to 47.5%); format: functional
MV4-11 [3] = experiment: Antiproliferative activity against human MV411 cells after 72 hrs by Alamar blue assay; format: functional, cell-based; conditions: MV4-11, 72 h
MV4-11 [4] = experiment: Cell cycle arrest in human MV411 cells assessed as accumulation at G2 phase at 25 uM after 24 hrs by propidium iodide staining based flow cytometric analysis (reference value: 4.19 to 11.88%); format: functional
MV4-11 [5] = experiment: Cell cycle arrest in human MV411 cells assessed as accumulation at S phase at 12.5 uM after 24 hrs by propidium iodide staining based flow cytometric analysis (reference value: 30.25 to 47.5%); format: functional
MV4-11 [6] = experiment: Cell cycle arrest in human MV411 cells assessed as accumulation at G2 phase at 50 uM after 24 hrs by propidium iodide staining based flow cytometric analysis (reference value: 4.19 to 11.88%); format: functional
MV4-11 [7] = experiment: Cell cycle arrest in human MV411 cells assessed as accumulation at G1 phase after 24 hrs by propidium iodide staining based flow cytometric analysis; format: functional
MV4-11 [8] = experiment: Cell cycle arrest in human MV411 cells assessed as accumulation at S phase at 25 uM after 24 hrs by propidium iodide staining based flow cytometric analysis (reference value: 30.25 to 47.5%); format: functional
MV4-11 [9] = experiment: Induction of apoptosis in human MV411 cells assessed as necrotic cells at 50 uM after 48 hrs by Annexin-V-FITC/propidium iodide staining based flow cytometric method (Rvb <= 0.08%); format: functional
MV4-11 [10] = experiment: Induction of apoptosis in human MV411 cells assessed as late apoptotic cells at 12.5 uM after 48 hrs by Annexin-V-FITC/propidium iodide staining based flow cytometric method (reference value: 4.38 to 4.63%); format: functional
[11] = target: T1, Histone-lysine N-methyltransferase, H3 lysine-79 specific (Homo sapiens, UniProt Q8TEK3); experiment: (§1) Inhibition of recombinant human His6-SUMO tagged DOT1L (1 to 416 residues) expressed in Escherichia coli BL21(DE3) at 50 uM using oligonucleosome as substrate pretreated for 15 mins followed by substrate addition measured after 60 mins in presence of [3H]SAM by liquid scintillation counting method relative to control
Target sequence in this assay (Q8TEK3 whole entry, looked up, the tested form may be a part): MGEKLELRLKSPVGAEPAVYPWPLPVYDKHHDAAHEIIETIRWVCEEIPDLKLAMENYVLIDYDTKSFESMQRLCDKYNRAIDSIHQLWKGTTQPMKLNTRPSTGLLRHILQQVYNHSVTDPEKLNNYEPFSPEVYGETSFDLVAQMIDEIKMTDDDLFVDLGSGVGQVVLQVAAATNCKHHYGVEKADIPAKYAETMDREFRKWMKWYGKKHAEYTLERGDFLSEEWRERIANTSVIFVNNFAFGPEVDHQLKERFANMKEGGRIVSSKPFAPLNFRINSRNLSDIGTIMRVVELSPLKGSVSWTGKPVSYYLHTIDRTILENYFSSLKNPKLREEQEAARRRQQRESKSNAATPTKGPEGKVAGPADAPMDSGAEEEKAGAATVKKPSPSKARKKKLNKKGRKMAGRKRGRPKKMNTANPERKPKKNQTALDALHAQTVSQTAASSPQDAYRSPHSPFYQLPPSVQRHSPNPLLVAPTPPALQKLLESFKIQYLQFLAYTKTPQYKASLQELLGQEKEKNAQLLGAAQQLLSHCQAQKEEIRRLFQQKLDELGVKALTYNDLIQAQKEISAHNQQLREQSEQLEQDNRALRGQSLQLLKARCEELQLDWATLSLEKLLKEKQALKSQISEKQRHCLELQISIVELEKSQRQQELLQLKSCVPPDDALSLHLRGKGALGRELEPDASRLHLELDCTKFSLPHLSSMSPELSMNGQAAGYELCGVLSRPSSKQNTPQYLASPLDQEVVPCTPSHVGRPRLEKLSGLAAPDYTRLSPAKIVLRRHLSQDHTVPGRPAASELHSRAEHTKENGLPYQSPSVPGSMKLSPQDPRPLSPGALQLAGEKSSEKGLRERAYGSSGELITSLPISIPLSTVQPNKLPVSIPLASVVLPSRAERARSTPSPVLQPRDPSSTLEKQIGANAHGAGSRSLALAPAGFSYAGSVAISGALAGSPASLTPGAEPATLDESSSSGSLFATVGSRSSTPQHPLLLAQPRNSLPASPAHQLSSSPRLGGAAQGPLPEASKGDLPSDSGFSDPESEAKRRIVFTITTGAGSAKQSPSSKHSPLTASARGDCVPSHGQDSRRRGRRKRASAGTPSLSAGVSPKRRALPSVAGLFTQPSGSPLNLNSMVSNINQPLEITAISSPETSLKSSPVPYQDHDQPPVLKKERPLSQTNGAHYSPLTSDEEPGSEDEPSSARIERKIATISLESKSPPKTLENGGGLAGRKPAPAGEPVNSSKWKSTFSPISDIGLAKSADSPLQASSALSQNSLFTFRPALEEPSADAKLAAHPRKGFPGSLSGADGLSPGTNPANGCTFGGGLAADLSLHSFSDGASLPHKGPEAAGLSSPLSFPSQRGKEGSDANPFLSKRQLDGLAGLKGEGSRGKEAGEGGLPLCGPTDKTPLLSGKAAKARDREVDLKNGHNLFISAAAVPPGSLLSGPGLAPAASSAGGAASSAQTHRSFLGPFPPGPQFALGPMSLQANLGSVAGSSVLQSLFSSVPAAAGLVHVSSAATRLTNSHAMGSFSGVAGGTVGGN

MV4-11 [12] = experiment: Induction of apoptosis in human MV411 cells assessed as viable cells at 12.5 uM after 48 hrs by Annexin-V-FITC/propidium iodide staining based flow cytometric method (reference value: 88.5 to 94.5%); format: functional; conditions: MV4-11, 48 h, read-out: Activity
MV4-11 [13] = experiment: Cell cycle arrest in human MV411 cells assessed as accumulation at G1 phase at 12.5 uM after 24 hrs by propidium iodide staining based flow cytometric analysis (reference value: 40.62 to 65.56%); format: functional
MV4-11 [14] = experiment: Induction of apoptosis in human MV411 cells assessed as viable cells at 50 uM after 48 hrs by Annexin-V-FITC/propidium iodide staining based flow cytometric method (reference value: 88.5 to 94.5%); format: functional; conditions: MV4-11, 48 h, read-out: Activity
MV4-11 [15] = experiment: Cell cycle arrest in human MV411 cells assessed as accumulation at G2 phase at 12.5 uM after 24 hrs by propidium iodide staining based flow cytometric analysis (reference value: 4.19 to 11.88%); format: functional
MV4-11 [16] = experiment: Induction of apoptosis in human MV411 cells assessed as late apoptotic cells at 25 uM after 48 hrs by Annexin-V-FITC/propidium iodide staining based flow cytometric method (reference value: 4.38 to 4.63%); format: functional
[17] = target: T1, Histone-lysine N-methyltransferase, H3 lysine-79 specific; experiment: Inhibition of recombinant human His6-SUMO tagged DOT1L (1 to 416 residues) expressed in Escherichia coli BL21(DE3) using oligonucleosome as substrate measured after 30 mins in presence of SAM by AlphaLISA assay
Target sequence in this assay (Q8TEK3 whole entry, the tested form may be a part): as the sequence (Q8TEK3 whole entry, looked up, the tested form may be a part) above

[18] = target: T1, Histone-lysine N-methyltransferase, H3 lysine-79 specific; experiment: Binding affinity to recombinant human His6-SUMO tagged DOT1L (1 to 416 residues) expressed in Escherichia coli BL21(DE3) by surface plasmon resonance method
Target sequence in this assay (Q8TEK3 whole entry, the tested form may be a part): as the sequence (Q8TEK3 whole entry, looked up, the tested form may be a part) above

[19] = target: T1, Histone-lysine N-methyltransferase, H3 lysine-79 specific; experiment: Inhibition of recombinant human His6-SUMO tagged DOT1L (1 to 416 residues) expressed in Escherichia coli BL21(DE3) using oligonucleosome as substrate pretreated for 15 mins followed by substrate addition measured after 60 mins in presence of [3H]SAM by liquid scintillation counting method
Target sequence in this assay (Q8TEK3 whole entry, the tested form may be a part): as the sequence (Q8TEK3 whole entry, looked up, the tested form may be a part) above

MV4-11 [20] = experiment: Induction of apoptosis in human MV411 cells assessed as viable cells at 25 uM after 48 hrs by Annexin-V-FITC/propidium iodide staining based flow cytometric method (reference value: 88.5 to 94.5%); format: functional; conditions: MV4-11, 48 h, read-out: Activity
MV4-11 [21] = experiment: Induction of apoptosis in human MV411 cells assessed as early apoptotic cells at 25 uM after 48 hrs by Annexin-V-FITC/propidium iodide staining based flow cytometric method (reference value: 1.15 to […]); format: functional
MV4-11 [22] = experiment: Induction of apoptosis in human MV411 cells assessed as necrotic cells at 12.5 uM after 48 hrs by Annexin-V-FITC/propidium iodide staining based flow cytometric method (Rvb <= 0.08%); format: functional
MV4-11 [23] = experiment: Induction of apoptosis in human MV411 cells assessed as late apoptotic cells at 50 uM after 48 hrs by Annexin-V-FITC/propidium iodide staining based flow cytometric method (reference value: 4.38 to 4.63%); format: functional
[24] = target: T1, Histone-lysine N-methyltransferase, H3 lysine-79 specific; experiment: as §1, with “100” for “50”
Target sequence in this assay (Q8TEK3 whole entry, looked up, the tested form may be a part): as above

[25] = target: T1, Histone-lysine N-methyltransferase, H3 lysine-79 specific; experiment: as §1, with “25” for “50”
Target sequence in this assay (Q8TEK3 whole entry, looked up, the tested form may be a part): as above

MV4-11 [26] = experiment: Cell cycle arrest in human MV411 cells assessed as accumulation at G1 phase at 50 uM after 24 hrs by propidium iodide staining based flow cytometric analysis (reference value: 40.62 to 65.56%); format: functional
MV4-11 [27] = experiment: Cell cycle arrest in human MV411 cells assessed as accumulation at G1 phase at 25 uM after 24 hrs by propidium iodide staining based flow cytometric analysis (reference value: 40.62 to 65.56%); format: functional
MV4-11 [28] = experiment: Induction of apoptosis in human MV411 cells assessed as early apoptotic cells at 12.5 uM after 48 hrs by Annexin-V-FITC/propidium iodide staining based flow cytometric method (reference value: 1.15 to […]); format: functional
MV4-11 [29] = experiment: Induction of apoptosis in human MV411 cells assessed as early apoptotic cells at 50 uM after 48 hrs by Annexin-V-FITC/propidium iodide staining based flow cytometric method (reference value: 1.15 to […]); format: functional

With `CN(C)c1ccc(-c2nnc3sc(/C=C/c4ccco4)nn23)cc1` the Activity (MV4-11 [1]) was 0.04%, the Activity (MV4-11 [2]) was 17.77% and the IC50 (MV4-11 [3]) was 51.5 µM. It also gave an Activity (MV4-11 [4]) of 3.64%, an Activity (MV4-11 [5]) of 25.96% and an Activity (MV4-11 [6]) of 0%. The Activity (MV4-11 [7]) was “Dose-dependent effect”, the Activity (MV4-11 [8]) was 25.46% and the Activity (MV4-11 [9]) was 0.09%. It also gave an Activity (MV4-11 [10]) of 6.29%, an inhibition [11] of 60% and a viability at 12.5 µM (MV4-11 [12]) of 91.6%. For the same compound, the Activity (MV4-11 [13]) was 69.4%, the viability at 50 µM (MV4-11 [14]) was 0.83% and the Activity (MV4-11 [15]) was 4.64%. It also gave an Activity (MV4-11 [16]) of 42.4%, an IC50 [17] of 20.9 µM and a Kd [18] of 9.3 µM. It also gave an IC50 [19] of 20.9 µM, a viability at 25 µM (MV4-11 [20]) of 22.2% and an Activity (MV4-11 [21]) of 35.4%. It also gave an Activity (MV4-11 [22]) of 0.05%, an Activity (MV4-11 [23]) of 49.8% and an inhibition [24] of 73%. For the same compound, the inhibition [25] was 56%, the Activity (MV4-11 [26]) was 81.23% and the Activity (MV4-11 [27]) was 70.9%. The Activity (MV4-11 [28]) was 2.01% and the Activity (MV4-11 [29]) was 49.3%.
